In patent US8759376B2, “Isoxazole and isothiazole compounds useful in the treatment of inflammation” (The Feinstein Institute for Medical Research, priority 2003, dated 2014):
Values joined by “and” are separate entries in the source; they are usually repeats but may differ in a detail not shown here. Equal entries are not always repeated.

Columns and labels:
TNF = TNF production by LPS-stimulated primary human macrophages (ELISA); type: cell-based; settings: LPS 100 ng/ml, 4 hours
Description: Human macrophage cultures were prepared as follows. Buffy coats were collected from the blood of healthy individual donors to the Long Island Blood Bank Services (Melville, N.Y.). Primary blood mononuclear cells were isolated by density-gradient centrifugation through Ficoll/Hypaque (Pharmacia, N.J.), suspended (8×10^6 cells/ml) in RPMI 1640 medium supplemented with 10% heat inactivated human serum (Gemini Bio-Products, Inc., Calabasas, Calif.), and seeded in flasks (PRIMARIA; Beckton and Dickinson Labware, Franklin Lakes, N.J.). After incubation for 2 hours at 37° C., adherent cells were washed extensively, treated briefly with 10 mM EDTA, detached, resuspended (10^6 cells/ml) in RPMI medium (10% human serum), supplemented with human macrophage colony stimulating factor (MCSF; Sigma Chemical Co., St. Louis, Mo.; 2 ng/ml), and seeded onto 24-well tissue culture plates (PRIMARIA; Falcon) (10^6 cells/well). Cells were allowed to differentiate for 7 days in the presence of MCSF. On day 7 the cells were washed 3 times with 1× Dulbecco's phosphate buffered saline (PBS, GibcoBRL, Life Technologies, Rockville, Md.), fresh medium devoid of MCSF was added, and experiments performed as indicated. […]

female BALB/c mice = assay: Localized Shwartzman reaction model, ear immunostaining; type: in vivo; settings: i.p.; ears 5 hours after LPS challenge; compared to vehicle-treated animals
Description: The localized Shwartzman reaction was performed as previously described (C. Sunderkotter, S. Seeliger, F. Schonlau, J. Roth, R. Hallmann, T. A. Luger, C. Sorg, and G. Kolde. 2001. Different pathways leading to cutaneous leukocytoclastic vasculitits in mice. Exp Dermatol 10:391-404.). Briefly, female BALB/c mice (22-26 g, Taconic) were injected with saline or Compound VIf (i.p., at the indicated doses), and then injected s.c. into the pinnae of the ear with 20 Φg LPS (preparatory dose). One day later, mice (4 per group) were injected either with vehicle (saline) or […] (i.p., at the indicated doses) 15 min prior to challenge with LPS (150 Φg, i.p.) To generate a localized vasculitic reaction. Five hours later, mice were sacrificed by CO2 asphyxiation, and the ears were excised and cut in half longitudinally. Ears were flash frozen in liquid nitrogen and stored at −80 EC. Each experiment was repeated twice. […]
After immunostaining, slides were counterstained with H&E, dehydrated, and mounted with permount. For enumeration of positive staining, three fields per section (three sections per sample) were assessed at 200× magnification and scored as the average number (+SD) of VCAM-1 or E-selectin positive capillaries/vessels. […]

[1] = tested on: female Swiss Webster mice; assay: Carrageenan air pouch model, pouch fluid cytokines by ELISA; type: in vivo; settings: 12 mg/kg i.p.
[2] = tested on: α-bungarotoxin sensitive receptor on the RAW 264.7 cells; type: cell-based, murine

## c1ccc(C2CC(c3cccnc3)=NO2)nc1 (centres unmarked) [(VI d)]
TNF
  TNF release: inhibited TNF release in a dose dependent manner
  efficacy on TNF release compared with control (nicotine): comparable to or better than that of the control

## c1cncc(C2=NOC(c3ccncc3)C2)c1 (centres unmarked) [Compound (VI f)]
Female BALB/c mice
  E-selectin protein expression by the endothelium: reduced
  VCAM-1 protein expression by the endothelium: reduced
[1]
  reduction of pouch fluid levels of MCP-1: 20% and 30%
[1]; compared to vehicle-treated controls
  reduction of pouch TNF levels: 40%
[1]; control 100±7%
  pouch TNF level, % of control: 60±11%

## α-bungarotoxin
[2]
  effect on the inhibition of LPS-mediated TNFα release by compound (VI f): partially abrogated the inhibitory effect
